The record followed here is US20210046010A1, “TABLETS CONTAINING ARGININE AT HIGH CONCENTRATION” (KYOWA HAKKO BIO CO., LTD., priority 2015, published 2021).

Series [1] can be described thus: Moisture content of powder by Karl Fischer's method. The conditions noted are these: Japan Food Research Laboratories. In kind it is physicochemical. On the procedure:
(§1) 600 g of L-arginine was added to 5 L of water, and the mixture was mixed, and spray dried by a spray dryer [L-8i type spray dryer (manufactured by OHKAWARA KAKOHKI CO., LTD.)] set to the conditions of atomizer rotation number=35,000 rpm, inlet temperature=180° C. and outlet temperature=70° C. to give a powder. The moisture content of the aforementioned powder was measured by a heating and drying method moisture analyzer [heating and drying method moisture analyzer MX-50 (manufactured by A&D Company, Limited)] to find 1.96 mass % The moisture content was 2.3 mass % when measured by the Karl Fischer's method at the General Incorporated Foundations Japan Food Research Laboratories. Hereinafter this powder is indicated to as “SD arginine-A”.

Series [2] in a line: Moisture content of powder by heating and drying method moisture analyzer. The class given is physicochemical. As to conditions: heating and drying method moisture analyzer MX-50. As for the experimental part: as §1

Consider `N=C(N)NCCC[C@H](N)C(=O)O` [SD arginine-A, L-arginine], for which the moisture content worked out at 2.3 mass % in series [1] and 1.96 mass % in series [2].
For the compound `N=C(N)NCCC[C@H](N)C(=O)O` [SD arginine-B, L-arginine], the moisture content in series [2] stood at 1.81 mass %.
For the compound `N=C(N)NCCC[C@H](N)C(=O)O` [SD arginine-C, L-arginine], the moisture content in series [1] worked out at 3.91 mass %; in series [2] it was 3.80 mass %.
